Tests used:
[1] = tested on: corn; experiment: Test Example 5: effect on crop by foliage application, plastic box (Table 20, symbol c); type: in vivo; details: 320 g/ha, three weeks after application
Summary of the method: (§1)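 Foliar spray test: emulsion formulation diluted in water to a set application rate, sprayed onto 14-day-old plants raised in diluvial soil at 25° C to 30° C under glass. Both herbicidal effect and crop effect rated visually three weeks later.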

[2] = tested on: chickweed; experiment: Test Example 5: herbicidal effect by foliage application, plastic box (Table 20, symbol P); type: in vivo, common chickweed (Stellaria media); details: foliage application, 320 g/ha, three weeks after application
Summary of the method: as §1

[3] = tested on: persian speedwell; experiment: Test Example 5: herbicidal effect by foliage application, plastic box (Table 20, symbol R); type: in vivo, Persian speedwell (Veronica persica); details: foliage application, 320 g/ha, three weeks after application
Summary of the method: as §1

[4] = tested on: redroot pigweed; experiment: Test Example 5: herbicidal effect by foliage application, plastic box (Table 20, symbol N); type: in vivo, redroot pigweed (Amaranthus retroflexus); details: foliage application, 320 g/ha, three weeks after application
Summary of the method: as §1

[5] = tested on: rapeseed; experiment: Test Example 5: effect on crop by foliage application, plastic box (Table 20, symbol g); type: in vivo; details: 320 g/ha, three weeks after application
Summary of the method: as §1

[6] = tested on: windgrass; experiment: Test Example 5: herbicidal effect by foliage application, plastic box (Table 20, symbol L); type: in vivo, windgrass (Apera spica-venti); details: foliage application, 320 g/ha, three weeks after application
Summary of the method: as §1

[7] = tested on: Chinese sprangletop; experiment: Test Example 3: herbicidal effect by foliage application, Wagner pot (Table 18, symbol D); type: in vivo, chinese sprangletop (Leptochloa chinensis); details: 320 g/ha
Summary of the method: (§2)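 Plants were sown in alluvial soil held under 0.1–0.5 cm standing water and grown 14 days in a greenhouse at 25–30 °C. An emulsifiable formulation, water-diluted to the set dose, was then sprayed onto the foliage, and effects were scored three weeks later using previously defined criteria.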

[8] = tested on: green foxtail; experiment: Test Example 5: herbicidal effect by foliage application, plastic box (Table 20, symbol G); type: in vivo, green foxtail (Setaria viridis); details: foliage application, 320 g/ha, three weeks after application
Summary of the method: as §1

[9] = tested on: blackgrass; experiment: Test Example 5: herbicidal effect by foliage application, plastic box (Table 20, symbol J); type: in vivo, blackgrass (Alopecurus myosuroides); details: foliage application, 320 g/ha, three weeks after application
Summary of the method: as §1

[10] = tested on: barnyard grass; experiment: Test Example 5: herbicidal effect by foliage application, plastic box (Table 20, symbol H); type: in vivo, barnyard grass (Echinochloa crus-galli); details: foliage application, 320 g/ha, three weeks after application
Summary of the method: as §1

[11] = tested on: Italian ryegrass; experiment: Test Example 5: herbicidal effect by foliage application, plastic box (Table 20, symbol K); type: in vivo, Italian ryegrass (Lolium multiflorum); details: foliage application, 320 g/ha, three weeks after application
Summary of the method: as §1

[12] = tested on: oval-leafed pondweed; experiment: Test Example 1: herbicidal activity, application before weed generation under submerged conditions (Table 16, symbol C); type: in vivo, oval-leafed pondweed (Monochoria vaginalis); details: amount of applied herbicide 320 g/ha
Summary of the method: (§3)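 Emulsion formulation, water-diluted to set dose, was put onto the flooded surface (4 cm depth, alluvial soil) the same day weeds were sown and 2.5-leaf rice transplanted. After 3 weeks at 25-30 °C under glass, each species was rated 0 (≤5% kill) to 5 (≥90% kill).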

[13] = tested on: wild oat; experiment: Test Example 5: herbicidal effect by foliage application, plastic box (Table 20, symbol I); type: in vivo, wild oat (Avena fatua); details: foliage application, 320 g/ha, three weeks after application
Summary of the method: as §1

[14] = tested on: late watergrass; experiment: Test Example 1: herbicidal activity, application before weed generation under submerged conditions (Table 16, symbol A); type: in vivo, late watergrass (Echinochloa oryzicola); details: amount of applied herbicide 320 g/ha
Summary of the method: as §3

[15] = tested on: directly sowed rice; experiment: Test Example 3: effect on crop by foliage application, Wagner pot (Table 18, symbol b); type: in vivo; details: 320 g/ha
Summary of the method: as §2

[16] = tested on: transplanted rice; experiment: Test Example 1: effect on crop, application before weed generation under submerged conditions (Table 16, symbol a); type: in vivo; details: amount of applied herbicide 320 g/ha
Description: [Test Example 1] Herbicidal Activity Test by Application before Weed Generation under Submerged Conditions After alluvial soil was placed into 1/10000 are of Wagner pot, water was poured and mixed to form a submerged condition having a water depth of 4 cm. Seeds of late watergrass, Japanese bulrush, and oval-leafed pondweed were sowed in a mixed manner in the aforementioned pot, and then 2.5 leaf stage rice plant seedlings were transplanted thereto. On the day of sowing seeds, the emulsion agent of the compound of the present invention prepared according to Formulation Example 2 was diluted with water so as to achieve a predetermined herbicide amount, and the diluted emulsion agent was applied to the surface of the water. The pot was placed in a greenhouse at 25° C. to 30° C. for growth of the plants. Three weeks after the herbicide application, the effect of the herbicide on each plant was evaluated according to the following criteria. Evaluation Criteria 5: Herbicidal rate of 90% or more (almost completely withered) 4: Herbicidal rate of 70% or more and less than 90% 3: Herbicidal rate of 40% or more and less than 70% 2: Herbicidal rate of 20% or more and less than 40% 1: Herbicidal rate of 5% or more and less than 20% 0: Herbicidal rate of 5% or less (almost no effect)

[17] = tested on: wheat; experiment: Test Example 5: effect on crop by foliage application, plastic box (Table 20, symbol e); type: in vivo; details: 320 g/ha, three weeks after application
Summary of the method: as §1

[18] = tested on: barnyard grass; experiment: Test Example 3: herbicidal effect by foliage application, Wagner pot (Table 18, symbol H); type: in vivo, barnyard grass (Echinochloa crus-galli); details: 320 g/ha
Summary of the method: as §2

[19] = tested on: rice flat sedge; experiment: Test Example 3: herbicidal effect by foliage application, Wagner pot (Table 18, symbol E); type: in vivo, rice flat sedge (Cyperus iria); details: 320 g/ha
Summary of the method: as §2

[20] = tested on: Japanese bulrush; experiment: Test Example 1: herbicidal activity, application before weed generation under submerged conditions (Table 16, symbol B); type: in vivo, Japanese bulrush (Schoenoplectus juncoides); details: amount of applied herbicide 320 g/ha
Summary of the method: as §3

[21] = tested on: southern crabgrass; experiment: Test Example 5: herbicidal effect by foliage application, plastic box (Table 20, symbol F); type: in vivo, southern crabgrass (Digitaria ciliaris); details: foliage application, 320 g/ha, three weeks after application
Summary of the method: as §1

[22] = tested on: velvetleaf; experiment: Test Example 5: herbicidal effect by foliage application, plastic box (Table 20, symbol M); type: in vivo, velvetleaf (Abutilon theophrasti); details: foliage application, 320 g/ha, three weeks after application
Summary of the method: as §1

[23] = tested on: beet; experiment: Test Example 5: effect on crop by foliage application, plastic box (Table 20, symbol f); type: in vivo; details: 320 g/ha, three weeks after application
Summary of the method: as §1

[24] = tested on: soybean; experiment: Test Example 5: effect on crop by foliage application, plastic box (Table 20, symbol d); type: in vivo; details: 320 g/ha, three weeks after application
Summary of the method: as §1

[25] = tested on: lambsquarters; experiment: Test Example 5: herbicidal effect by foliage application, plastic box (Table 20, symbol O); type: in vivo, lambsquarters (Chenopodium album); details: foliage application, 320 g/ha, three weeks after application
Summary of the method: as §1

**Q.** For `COc1ccc2c(-c3c(O)c(N(Cc4ccccc4)Cc4ccccc4)nn(C)c3=O)c(-c3ccccc3OC)sc2c1` [Compound No. 3-086, 6-(dibenzylamino)-5-hydroxy-4-(6-methoxy-2-(2-methoxyphenyl)benzo[b]thiophen-3-yl)-2-methylpyridazin-3(2H)-one], which “c: corn, effect on crop grade” value [1] is on record?
**A.** 0 (Herbicidal rate of 5% or less (almost no effect))

**Q.** What about the “P: chickweed, herbicidal effect grade” value [2] of the same compound?
**A.** 0 (Herbicidal rate of 5% or less (almost no effect))

**Q.** And the “R: persian speedwell, herbicidal effect grade” value [3]?
**A.** 0 (Herbicidal rate of 5% or less (almost no effect))

**Q.** What about the “N: redroot pigweed, herbicidal effect grade” value [4] of the same compound?
**A.** 5 (Herbicidal rate of 90% or more (almost completely withered))

**Q.** What about the “g: rapeseed, effect on crop grade” value [5] of the same compound?
**A.** 5 (Herbicidal rate of 90% or more (almost completely withered))

**Q.** What about the “L: windgrass, herbicidal effect grade” value [6] of the same compound?
**A.** 0 (Herbicidal rate of 5% or less (almost no effect))

**Q.** And the “herbicidal effect on Chinese sprangletop (D)” value [7]?
**A.** 0 (Herbicidal rate of 5% or less (almost no effect))

**Q.** What about the “G: green foxtail, herbicidal effect grade” value [8] of the same compound?
**A.** 0 (Herbicidal rate of 5% or less (almost no effect))

**Q.** What about the “J: blackgrass, herbicidal effect grade” value [9] of the same compound?
**A.** 3 (Herbicidal rate of 40% or more and less than 70%)

**Q.** And the “H: barnyard grass, herbicidal effect grade” value [10]?
**A.** 0 (Herbicidal rate of 5% or less (almost no effect))

**Q.** And the “K: Italian ryegrass, herbicidal effect grade” value [11]?
**A.** 0 (Herbicidal rate of 5% or less (almost no effect))

**Q.** What about the “Herbicidal effect, C: oval-leafed pondweed” value [12] of the same compound?
**A.** 0 (Herbicidal rate of 5% or less (almost no effect))

**Q.** And the “I: wild oat, herbicidal effect grade” value [13]?
**A.** 0 (Herbicidal rate of 5% or less (almost no effect))

**Q.** And the “Herbicidal effect, A: late watergrass” value [14]?
**A.** 0 (Herbicidal rate of 5% or less (almost no effect))

**Q.** And the “effect on directly sowed rice (b)” value [15]?
**A.** 0 (Herbicidal rate of 5% or less (almost no effect))

**Q.** What about the “Effect on crop, a: transplanted rice” value [16] of the same compound?
**A.** 0 (Herbicidal rate of 5% or less (almost no effect))

**Q.** And the “e: wheat, effect on crop grade” value [17]?
**A.** 0 (Herbicidal rate of 5% or less (almost no effect))

**Q.** And the “herbicidal effect on barnyard grass (H)” value [18]?
**A.** 3 (Herbicidal rate of 40% or more and less than 70%)

**Q.** What about the “herbicidal effect on rice flat sedge (E)” value [19] of the same compound?
**A.** 0 (Herbicidal rate of 5% or less (almost no effect))

**Q.** And the “Herbicidal effect, B: Japanese bulrush” value [20]?
**A.** 2 (Herbicidal rate of 20% or more and less than 40%)

**Q.** What about the melting point of the same compound?
**A.** 163 to 166 °C

**Q.** What about the “F: southern crabgrass, herbicidal effect grade” value [21] of the same compound?
**A.** 0 (Herbicidal rate of 5% or less (almost no effect))

**Q.** What about the “M: velvetleaf, herbicidal effect grade” value [22] of the same compound?
**A.** 0 (Herbicidal rate of 5% or less (almost no effect))

**Q.** And the “f: beet, effect on crop grade” value [23]?
**A.** 0 (Herbicidal rate of 5% or less (almost no effect))

**Q.** And the “d: soybean, effect on crop grade” value [24]?
**A.** 3 (Herbicidal rate of 40% or more and less than 70%)

**Q.** What about the “O: lambsquarters, herbicidal effect grade” value [25] of the same compound?
**A.** 1 (Herbicidal rate of 5% or more and less than 20%)
